Measurements reported in ChEMBL document CHEMBL5053550, “LipE guided discovery of isopropylphenyl pyridazines as pantothenate kinase modulators” (Bioorg Med Chem, 2021).
In brackets after ≈: the same amount, converted by molar mass.

How the values were obtained:
Pantothenate kinase 3 = Pantothenate kinase 3 (Homo sapiens, UniProt Q9H999)
Description: Inhibition of human recombinant N-terminal His6-fusion tagged PanK3 expressed in Escherichia coli BL21 (DE3) measured after 10 mins in presence of ATP and D-[14C]-pantothenate by scintillation counting method

[1] = Half life in mouse liver microsomes; format: ADME, Microsome; conditions: for half-life: liver microsomes
[2] = Protein binding in rat plasma by LCMS analysis; format: ADME, cell-free
[3] = Half life in […] rat microsomes; format: ADME, Liver, Microsome
[4] = Half life in […] human microsomes; format: ADME, Liver, Microsome
[5] = Permeability of the compound by PAMPA assay; format: ADME; conditions: for Papp: read-out: permeability
[6] = Half life in human plasma; format: ADME, cell-free
[7] = Protein binding in human plasma by LCMS analysis; format: ADME, cell-free
[8] = Permeability across apical to basolateral side in human Caco2 cells; format: ADME, cell-based; conditions: Caco-2, read-out: permeability
[9] = Protein binding in mouse plasma by LCMS analysis; format: ADME, cell-free
[10] = Solubility of the compound in pH 7.4 by UV spectrometry; format: physicochemical; conditions: buffer

Pantothenate kinase 3, sequence (Q9H999 whole entry): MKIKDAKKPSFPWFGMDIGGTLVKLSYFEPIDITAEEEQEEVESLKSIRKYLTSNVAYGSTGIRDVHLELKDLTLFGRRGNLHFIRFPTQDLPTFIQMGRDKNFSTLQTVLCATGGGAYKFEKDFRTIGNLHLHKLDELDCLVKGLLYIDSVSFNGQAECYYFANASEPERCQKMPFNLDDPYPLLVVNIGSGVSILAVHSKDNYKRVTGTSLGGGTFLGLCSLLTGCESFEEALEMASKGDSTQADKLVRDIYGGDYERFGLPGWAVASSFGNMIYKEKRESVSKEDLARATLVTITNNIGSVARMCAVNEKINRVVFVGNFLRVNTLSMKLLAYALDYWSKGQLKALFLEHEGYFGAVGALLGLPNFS

Row | Structure (SMILES) | IC50 (Pantothenate kinase 3) [nM] | other results
1 | CC(C)c1ccc(NC(=O)N2CCN(c3ncccc3C#N)CC2)cc1 | 1100 | –
2 | CC(C)c1ccc(NC(=O)N2CCN(c3ccc(Cl)c(Cl)c3)CC2)cc1 | 1400 | –
3 | CC(=O)c1ccc(N2CCN(C(=O)Nc3ccc(C(C)C)cc3)CC2)cc1 | 3300 | –
4 | CC(C)c1ccc(NC(=O)N2CCN(c3ccc(F)cc3)CC2)cc1 | 1800 | –
5 | CC(C)(C)c1ccc(NC(=O)N2CCN(c3ccc(C#N)cn3)CC2)cc1 | – | half-life [1]: 16 min; PPB [2]: 98%; half-life [3]: 31 min; half-life [4]: 8 min; permeability [5]: 1232 10^-6 cm/s; half-life [6]: > 48 h
6 | CC(C)c1ccc(CC(=O)N2CCN(c3ccc(C#N)nn3)CC2)cc1 | – | half-life [1]: 8 min; fraction unbound ([7]; read-out: PPB (converted)): 0.07; fraction unbound ([2]; read-out: PPB): 0.09; Papp A→B [8]: 30.2 ×10⁻⁶ cm/s; half-life [4]: 7 min; fraction unbound ([9]; read-out: PPB (converted)): 0.08; Papp [5]: 413 ×10⁻⁶ cm/s; half-life [6]: > 48 h
7 | CC(C)c1ccc(NC(=O)N2CCN(c3ccc(C#N)nn3)CC2)cc1 | – | t1/2 ([1]; microsomes): 113 min; PPB [7]: 92%; PPB [2]: 89%; t1/2 [3]: 294 min; solubility [10]: 5.5 µM (≈ 1.93 µg/mL); t1/2 [4]: 64 min; PPB [9]: 92%; Papp [5]: 316 ×10⁻⁶ cm/s; half-life [6]: > 48 h
8 | CC(C)c1ccc(NC(=O)N2CCN(c3cccc(Cl)c3)CC2)cc1 | 1700 | –
9 | CC(C)c1ccc(NC(=O)N2CCN(c3ncc(Br)cn3)CC2)cc1 | 160 | –
10 | CC(C)c1ccc(NC(=O)N2CCN(c3nccc(C#N)n3)CC2)cc1 | 140 | –
11 | CC(C)c1ccc(NC(=O)N2CCN(c3ccccn3)CC2)cc1 | 5300 | –
12 | CC(C)c1ccc(NC(=O)N2CCN(c3ccc(C#N)cc3)CC2)cc1 | 580 | –
13 | CC(C)c1ccc(NC(=O)N2CCN(c3cnc(C#N)nc3)CC2)cc1 | 170 | –
14 | CC(C)c1ccc(NC(=O)N2CCN(c3ccc(C(F)(F)F)cn3)CC2)cc1 | 770 | –

Now from value to molecule, other results behind:

Row | IC50 (Pantothenate kinase 3) [nM] | Structure (SMILES) | other results
15 | 220 | CC(C)c1ccc(NC(=O)N2CCN(c3ccc(Cl)cn3)CC2)cc1 | –
16 | 200 | N#Cc1ccc(N2CCN(C(=O)Cc3ccc(C4CC4)cc3)CC2)nc1 | –
17 | 640 | CC(C)c1ccc(NC(=O)N2CCN(c3ccc(C#N)cn3)CC2)cc1 | –
18 | 220 | CC(C)c1ccc(NC(=O)N2CCN(c3ccc(Br)cn3)CC2)cc1 | –
19 | 230 | CC(C)c1ccc(NC(=O)N2CCN(c3cc(C#N)ccn3)CC2)cc1 | –
20 | 1200 | CCCCc1ccc(NC(=O)N2CCN(c3ccc(C#N)cn3)CC2)c(C)c1 | –
21 | 2300 | Cc1ccc(N2CCN(C(=O)Nc3ccc(C(C)C)cc3)CC2)nc1 | –
22 | 420 | CC(C)c1ccc(OC(=O)N2CCN(c3ccc(C#N)cn3)CC2)cc1 | –
23 | 990 | CC(C)c1ccc(C(O)C(=O)N2CCN(c3ccc(C#N)cn3)CC2)cc1 (stereo unspecified) | –
24 | 270 | CC(C)c1ccc(CC(=O)N2CCN(c3nccc(Cl)n3)CC2)cc1 | –
25 | 490 | CC(C)Cc1ccc(NC(=O)N2CCN(c3ccc(C#N)cn3)CC2)cc1 | –
26 | > 10000 | CC(C)c1ccc(NC(=O)N2CCN(c3ccc(N)cn3)CC2)cc1 | –
